pEC50: −log10 of the molar value. Like-named read-outs stand apart in the source and are kept apart here.
Key:
Assay in all cases: IncuCyte Kinetic Caspase-3/7 Apoptosis Assay
Type in all cases: cell-based
Settings in all cases: Homo sapiens, read-out: Compound 1-induced Apoptosis EC50
[1] = system: AML-193
Excerpt: (§1) Methods. Acute Myeloid Leukemia Cell Line Panel: Human AML cell lines, AML-193, F36-P, GDM-1, HL-60, HNT-34, Kasumi-1, Kasumi-3, KG-1, KG-1a, ML-2, MOLM-13, MUTZ-8, MV-4-11, NOMO-1, OCI-AML2, OCI-AML3, SIG-M5, TF-1, THP-1, and UT-7 were obtained from American Type Culture Collection (ATCC; Manassas, Va.) and Deutsche Sammlung von Mikroorganismen und Zellkulturen (DSMZ) (Germany) cell banks. The AML panel includes cell line(s) from each FAB classification (M0-M7) (Table 7).
(§2) Cell Culture Conditions: Cell lines were maintained in growth media containing 20% fetal bovine serum (FBS) (Hyclone Cat no. SH30910.03, Lot no. AZF188864; Corning REFno. 35-010-CV, Lot no. 35010124) supplemented with or without 10 ng/mL human recombinant granulocyte-macrophage colony stimulating factor (Sigma-Aldrich Cat no. SRP3050) (Table 8). Medium was purchased from ATCC (Cat no. 30-2001, 30-2002, 30-2003, 30-2005) and Gibco (REF no. 12561-056). Human recombinant granulocyte macrophage colony stimulating factor (GM-CSF) was expressed in Escherichia coli. The cell doubling times for each cell line were provided by ATCC and DSMZ. Cells were maintained in humidified incubators at 5% carbon dioxide (CO2). All cell lines were acclimated to Eagle's minimal essential medium (EMEM)+20% FBS with or without GM-CSF over 2 to 4 weeks prior to live cell imaging using IncuCyte Zoom (Essen Biosciences). The use of EMEM was necessary to eliminate background fluorescence caused by riboflavin in most media.
(§3) Incubation of Cell Cultures with Compound 1: Compound 1 was provided for studies by Celgene chemistry group at a stock concentration of 30 mM in 20 μL dimethyl sulfoxide (DMSO) frozen. Costar 96-well cell culture plates (Corning Cat no. 3595) were coated with 100 μL of 10 µg/mL fibronectin (Sigma-Aldrich Cat no. F1141) for 4 hours at 37° C. and immediately used or refrigerated overnight for later use. Cells (3000 to 6000 cells) were plated in growth medi in fibronectin-coated 96-well plates and incubated for a minimum of a few hours to overnight. Cells were incubated with a 12-point concentration response in triplicate with Compound 1 ([…]) including DMSO and Media controls. A 3-fold serial dilution of Compound 1 starting from a concentration of 200 μM in 0.6% DMSO (diluted in Media) was performed. For most sensitive cell lines, a 3-fold serial dilution of Compound 1 starting from a concentration of 20 μM in 0.6% DMSO (diluted in media) was performed. A volume of 5 μL or 10 μL for each dilution was added to 100 μL or 200 μL cells, respectively (0.3% DMSO final) and incubated for live cell imaging.
(§4) Live Cell Imaging on IncuCyte Zoom: Following incubation of cells with Compound 1, diluted Caspase 3/7 reagent (Essen Biosciences Cat no. 4440) is added to each well. The Caspase-3/7 reagent couples the activated caspase-3/7 recognition motif (DEVD) to NucView™488, a DNA intercalating dye. The cleavage of substrate by activated caspase-3/7 results in the release of the DNA dye and green fluorescent staining of nuclear DNA. This allows imaging of cells undergoing caspase-3/7 mediated apoptosis over time. Caspase-3/7 activation was quantified using the IncuCyte™ ZOOM basic analyzer. Red-labeled cell lines were also imaged over time using the IncuCyte™ ZOOM basic analyzer, for determination of both cell doubling time and Compound 1 effect on cell viability. Experiments were performed at least two times in each cell line.
(§5) Next, a 4 parameter log-logistic model was used to determine relative EC50 at each time point by the ‘drm’ function from the R ‘drc’ package (Ritz C, Streibig J C. Bioassay Analysis using R. J. Statist. Software 2005; 12(5):1-22). Goodness of fit was measured by R squared (coefficient of determination or the amount of variation explained by the model fit) of ≥80%, and EC50 parameter was assessed by having a ratio of standard error to the parameter of ≤40%, and the presence of at least one concentration point above and below the reported EC50. […]

[2] = system: HNT-34
Excerpt: as §1, §2, §3, §4, §5

[3] = system: KG-1
Excerpt: as §1, §2, §3, §4, §5

[4] = system: Kasumi-1
Excerpt: as §1, §2, §3, §4, §5

[5] = system: Kasumi-3
Excerpt: as §1, §2, §3, §4, §5

[6] = system: MUTZ-8
Excerpt: as §1, §2, §3, §4, §5

[7] = system: Nomo-1
Excerpt: as §1, §2, §3, §4, §5

[8] = system: OCI-AML2
Excerpt: as §1, §2, §3, §4, §5

[9] = system: OCI-AML3
Excerpt: as §1, §2, §3, §4, §5

[10] = system: SIG-M5
Excerpt: as §1, §2, §3, §4, §5

[11] = system: TF-1
Excerpt: as §1, §2, §3, §4, §5

[12] = system: UT-7
Excerpt: as §1, §2, §3, §4, §5

In the case of `O=C1CCC(N2Cc3cc(CNC(=O)C(F)(F)c4ccc(Cl)cc4)ccc3C2=O)C(=O)N1` (stereo not drawn) [Compound 1, 2-(4-chlorophenyl)-N-((2-(2,6-dioxopiperidin-3-yl)-1-oxoisoindolin-5-yl)methyl)-2,2-difluoroacetamide], the pEC50 ([1]; 24 hr) was 6.60, the pEC50 ([1]; 48 hr) was 7.05 and the pEC50 ([1]; 72 hr) was 7.33. The pEC50 ([1]; 96 hr) was 7.22, the pEC50 ([2]; 24 hr) was 8.15 and the pEC50 ([2]; 48 hr) was 8.40. For the same compound, the pEC50 ([2]; 96 hr) was 8.70, the pEC50 ([3]; 12 hr) was 7.28 and the pEC50 ([3]; 24 hr) was 6.97. The pEC50 ([3]; 48 hr) was 7.41, the pEC50 ([3]; 72 hr) was 7.59 and the pEC50 ([3]; 96 hr) was 7.60. The pEC50 ([4]; 48 hr) was 6.91, the pEC50 ([4]; 72 hr) was 6.60 and the pEC50 ([4]; 96 hr) was 7.26. For the same compound, the pEC50 ([5]; 12 hr) was 7.27, the pEC50 ([5]; 24 hr) was 8.00 and the pEC50 ([5]; 48 hr) was 8.40. It also gave a pEC50 ([5]; 72 hr) of 8.52, a pEC50 ([5]; 96 hr) of 9.00 and a pEC50 ([6]; 24 hr) of 7.06. For the same compound, the pEC50 ([6]; 48 hr) was 7.40, the pEC50 ([6]; 72 hr) was 7.74 and the pEC50 ([6]; 96 hr) was 7.82. It also gave a pEC50 ([7]; 24 hr) of 7.20, a pEC50 ([7]; 48 hr) of 6.88 and a pEC50 ([7]; 72 hr) of 7.08. For the same compound, the pEC50 ([7]; 96 hr) was 7.18, the pEC50 ([8]; 24 hr) was 6.36 and the pEC50 ([8]; 48 hr) was 7.09. The pEC50 ([8]; 72 hr) was 7.39, the pEC50 ([8]; 96 hr) was 7.42 and the pEC50 ([9]; OCI-AML-3, 48 hr) was 6.05. The pEC50 ([9]; OCI-AML-3, 72 hr) was 6.01, the pEC50 ([9]; OCI-AML-3, 96 hr) was 6.38 and the pEC50 ([10]; 24 hr) was 6.83. For the same compound, the pEC50 ([10]; 48 hr) was 7.01, the pEC50 ([10]; 72 hr) was 7.30 and the pEC50 ([10]; 96 hr) was 7.48. For the same compound, the pEC50 ([11]; 48 hr) was 6.89, the pEC50 ([11]; 72 hr) was 7.19 and the pEC50 ([11]; 96 hr) was 7.19. The pEC50 ([12]; UT7, 48 hr) was 6.64, the pEC50 ([12]; UT7, 72 hr) was 6.66 and the pEC50 ([12]; UT7, 96 hr) was 6.77.
